Source: patent US20150105252A1, “SUBSTITUTED PYRAZOLES AS HERBICIDES” (E I DU PONT DE NEMOURS AND COMPANY, priority 2013, published 2015)

Tests used:
johnsongrass [1] = assay: Test C preemergence; type: in vivo, Sorghum halepense; conditions: for Plant response rating (scale of 0 to 100), Johnsongrass: Preemergence, 250 g ai/ha; for Johnsongrass plant response rating / Plant response rating, Johnsongrass: preemergence; for Plant response rating, Johnsongrass: 62 g ai/ha, scale 0 to 100, 0 = no effect, 100 = complete control
Text: (§1) Seeds of plant species selected from blackgrass (Alopecurus myosuroides), ryegrass, Italian (Italian ryegrass, Lolium multiflorum), wheat (winter wheat, Triticum aestivum), galium (catchweed bedstraw, Galium aparine), corn (Zea mays), crabgrass, large (large crabgrass, Digitaria sanguinalis), foxtail, giant (giant foxtail, Setaria faberii), johnsongrass (Sorghum halepense), lambsquarters (Chenopodium album), morningglory (Ipomoea coccinea), nutsedge, yellow (yellow nutsedge, Cyperus esculentus), pigweed (redroot pigweed, Amaranthus retroflexus), ragweed (common ragweed, Ambrosia elation), soybean (Glycine max), barnyardgrass (Echinochloa crus-galli), oilseed rape (Brassica napus), waterhemp (common waterhemp, Amaranthus rudis), oat, wild (wild oat, Avena fatua), kochia (Kochia scoparia), Surinam grass (Brachiaria decumbens), foxtail, green (green foxtail, Setaria viridis), goosegrass (Eleusine indica), bromegrass, downy (downy bromegrass, Bromus tectorum), nightshade (eastern black nightshade, Solanum ptycanthum), cocklebur (common cocklebur, Xanthium strumarium), cupgrass, woolly (woolly cupgrass, Eriochloa villosa), bermudagrass (Cynodon dactylon), sunflower, (common oilseed sunflower, Helianthus annuus), Russian thistle (Salsola kali), and velvetleaf (Abutilon theophrasti) were planted into a blend of loam soil and sand and treated preemergence with test chemicals formulated in a non-phytotoxic solvent mixture which included a surfactant.
(§2) At the same time, plants selected from these crop and weed species and also chickweed (common chickweed, Stellaria media), canarygrass (littleseed canarygrass, Phalaris minor), and deadnettle (henbit deadnettle, Lamium amplexicaule), were planted in pots containing Redi-Earth® planting medium (Scotts Company, 14111 Scottslawn Road, Marysville, Ohio 43041) comprising spaghnum peat moss, vermiculite, wetting agent and starter nutrients and treated with postemergence applications of test chemicals formulated in the same manner. Plants ranged in height from 2 to 18 cm (1- to 4-leaf stage) for postemergence treatments. Treated plants and controls were maintained in a greenhouse for 13 to 15 days, after which time all species were compared to controls and visually evaluated. Plant response ratings, summarized in Table C, are based on a scale of 0 to 100 where 0 is no effect and 100 is complete control. A dash (-) response means no test result.

lambsquarters = assay: Test C preemergence; type: in vivo, Chenopodium album; conditions: for Plant response rating (scale of 0 to 100), Lambsquarters: Preemergence, 250 g ai/ha; for Lambsquarters plant response rating / Plant response rating, Lambsquarters: preemergence; for Plant response rating, Lambsquarters: 62 g ai/ha, scale 0 to 100, 0 = no effect, 100 = complete control
Text: as §1, §2

wheat = assay: Test A preemergence; type: in vivo, Triticum aestivum
How it was run: (§3)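 Scoring was visual, on a scale where 100 means complete control and 0 means no effect, comparing treated with untreated plants around 10 days post-application. Compounds in surfactant-containing non-phytotoxic solvent were sprayed onto soil preemergence or onto one- to two-leaf seedlings (2–10 cm) postemergence.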

crabgrass, large = assay: Test C postemergence; type: in vivo, Digitaria sanguinalis; conditions: for Crabgrass, Large plant response rating: scale 0 to 100
Text: as §1, §2

blackgrass [2] = assay: Test C preemergence; type: in vivo, Alopecurus myosuroides; conditions: for Plant response rating (scale of 0 to 100), Blackgrass: Preemergence, 250 g ai/ha; for Blackgrass plant response rating / Plant response rating, Blackgrass: preemergence; for Plant response rating, Blackgrass: 62 g ai/ha, scale 0 to 100, 0 = no effect, 100 = complete control
Text: as §1, §2

velvetleaf = assay: Test A preemergence; type: in vivo, Abutilon theophrasti; conditions: 0 to 100 scale
How it was run: as §3

pigweed [3] = assay: Test A preemergence; type: in vivo, Amaranthus retroflexus; conditions: 0 to 100 scale
How it was run: as §3

foxtail, giant = assay: Test A preemergence; type: in vivo, Setaria faberii; conditions: 0 to 100 scale
How it was run: as §3

johnsongrass [4] = assay: Test C postemergence; type: in vivo, Sorghum halepense; conditions: for Johnsongrass plant response rating: scale 0 to 100
Text: as §1, §2

pigweed [5] = assay: Test C preemergence; type: in vivo, Amaranthus retroflexus; conditions: for Plant response rating (scale of 0 to 100), Pigweed: Preemergence, 250 g ai/ha; for Pigweed plant response rating / Plant response rating, Pigweed: preemergence; for Plant response rating, Pigweed: 62 g ai/ha, scale 0 to 100, 0 = no effect, 100 = complete control
Text: as §1, §2

blackgrass [6] = assay: Test C postemergence; type: in vivo, Alopecurus myosuroides; conditions: for Blackgrass plant response rating: scale 0 to 100
Text: as §1, §2

[7] = 31 g ai/ha, scale 0 to 100 (0 no effect, 100 complete control), 13 to 15 days
[8] = 125 g ai/ha, scale 0 to 100, 0 is no effect, 100 is complete control
[9] = preemergence, 125 g ai/ha, visual injury, 0 to 100 scale, approx. 10 days
[10] = preemergence, 500 g ai/ha, visual injury after approx. 10 days, 0 to 100 scale (0 no effect, 100 complete control)
[11] = postemergence, 250 g ai/ha, scale 0 to 100 (0 no effect, 100 complete control)
[12] = postemergence, 62 g ai/ha, scale 0 to 100, 0 no effect, 100 complete control
[13] = postemergence, 125 g ai/ha, scale 0 to 100, 0 no effect, 100 complete control
[14] = Preemergence, 500 g ai/ha, 0 no effect, 100 complete control
[15] = preemergence, 125 g ai/ha, visual injury, approx. 10 days
[16] = Preemergence, 1000 g ai/ha, 0 no effect, 100 complete control

SMILES | Plant response rating (scale of 0 to 100), Johnsongrass (johnsongrass [1]) | Johnsongrass plant response rating (johnsongrass [1]; [7]) | Plant response rating, Johnsongrass (johnsongrass [1]; 13 to 15 days) | Johnsongrass plant response rating (johnsongrass [1]; [8]) | Plant response rating (scale of 0 to 100), Lambsquarters (lambsquarters) | Lambsquarters plant response rating (lambsquarters; [7]) | Plant response rating, Lambsquarters (lambsquarters; 13 to 15 days) | Lambsquarters plant response rating (lambsquarters; [8]) | Wheat plant response rating (wheat; [10]) | Crabgrass, Large plant response rating (crabgrass, large; Postemergence, 31 g ai/ha) | Plant response rating, Crabgrass, Large (crabgrass, large; [11]) | Plant response rating, Crabgrass, Large (crabgrass, large; [13]) | Plant response rating (scale of 0 to 100), Blackgrass (blackgrass [2]) | Blackgrass plant response rating (blackgrass [2]; [7]) | Plant response rating, Blackgrass (blackgrass [2]; 13 to 15 days) | Blackgrass plant response rating (blackgrass [2]; [8]) | Johnsongrass plant response rating (johnsongrass [4]; Postemergence, 31 g ai/ha) | Plant response rating, Johnsongrass (johnsongrass [4]; [11]) | Plant response rating, Johnsongrass (johnsongrass [4]; [13]) | Plant response rating (scale of 0 to 100), Pigweed (pigweed [5]) | other results
CCc1cc(C(=O)NOC(C)C)nn1Cc1cccc(OC(F)(F)F)c1 [Compound 70] | 95 | 20 | 65 | 80 | 100 | 98 | 98 | 100 | 30 | 5 | 45 | 40 | 85 | 65 | 65 | 65 | 0 | 75 | 10 | 100 | Wheat plant response rating (wheat; [9]): 50; Plant response rating, Crabgrass, Large (crabgrass, large; [12]): 10; Velvetleaf plant response rating (velvetleaf; [14]): 80; Velvetleaf plant response rating (velvetleaf; [15]): 40; Pigweed plant response rating (pigweed [3]; [14]): 100; Pigweed plant response rating (pigweed [3]; [15]): 100; Foxtail, Giant plant response rating (foxtail, giant; [14]): 100; Foxtail, Giant plant response rating (foxtail, giant; [15]): 90; Plant response rating, Johnsongrass (johnsongrass [4]; [12]): 0; Pigweed plant response rating (pigweed [5]; [7]): 100; Plant response rating, Pigweed (pigweed [5]; 13 to 15 days): 100; Pigweed plant response rating (pigweed [5]; [8]): 100; Blackgrass plant response rating (blackgrass [6]; Postemergence, 31 g ai/ha): 0; Plant response rating, Blackgrass (blackgrass [6]; [11]): 25; Plant response rating, Blackgrass (blackgrass [6]; [12]): 5
CCONC(=O)c1cc(CC)n(Cc2cccc(OC(F)(F)F)c2)n1 [Compound 72] | 75 | 40 | 55 | 65 | 100 | 100 | 100 | 100 | 10 | 5 | 25 | 5 | 85 | 45 | 80 | 85 | 0 | 0 | 0 | 100 | Wheat plant response rating (wheat; [9]): 50; Crabgrass, Large plant response rating (crabgrass, large; postemergence, 62 g ai/ha): 5; Velvetleaf plant response rating (velvetleaf; [14]): 100; Velvetleaf plant response rating (velvetleaf; [15]): 70; Pigweed plant response rating (pigweed [3]; [14]): 100; Pigweed plant response rating (pigweed [3]; [15]): 100; Foxtail, Giant plant response rating (foxtail, giant; [14]): 100; Foxtail, Giant plant response rating (foxtail, giant; [15]): 70; Johnsongrass plant response rating (johnsongrass [4]; postemergence, 62 g ai/ha): 0; Pigweed plant response rating (pigweed [5]; [7]): 100; Plant response rating, Pigweed (pigweed [5]; 13 to 15 days): 100; Pigweed plant response rating (pigweed [5]; [8]): 100; Blackgrass plant response rating (blackgrass [6]; Postemergence, 31 g ai/ha): 5; Blackgrass plant response rating (blackgrass [6]; postemergence, 62 g ai/ha): 10; Plant response rating, Blackgrass (blackgrass [6]; [11]): 40; Plant response rating, Blackgrass (blackgrass [6]; [13]): 40
Cc1cc(C(=O)NCC(F)(F)F)nn1Cc1ccnc(C(F)(F)F)c1 [Compound 74] | 100 | 10 | 25 | 98 | 95 | 85 | 90 | 90 | 30 | 10 | 75 | 30 | 90 | 10 | 85 | 90 | 0 | 15 | 5 | 100 | Wheat plant response rating (wheat; Preemergence, 1000 g ai/ha, 0 to 100 scale, 0 no effect, 100 complete control): 100; Crabgrass, Large plant response rating (crabgrass, large; postemergence, 62 g ai/ha): 20; Velvetleaf plant response rating (velvetleaf; [16]): 100; Pigweed plant response rating (pigweed [3]; [16]): 100; Foxtail, Giant plant response rating (foxtail, giant; [16]): 100; Johnsongrass plant response rating (johnsongrass [4]; postemergence, 62 g ai/ha): 0; Pigweed plant response rating (pigweed [5]; [7]): 100; Plant response rating, Pigweed (pigweed [5]; 13 to 15 days): 100; Pigweed plant response rating (pigweed [5]; [8]): 100; Blackgrass plant response rating (blackgrass [6]; Postemergence, 31 g ai/ha): 0; Blackgrass plant response rating (blackgrass [6]; postemergence, 62 g ai/ha): 0; Plant response rating, Blackgrass (blackgrass [6]; [11]): 5; Plant response rating, Blackgrass (blackgrass [6]; [13]): 5
